What is called melting point is the temperature of the solid-liquid transition.

For this data set the following is noted: a range is the spread between reports.

`BrCc1ccc(Br)cc1` gave a melting point of 62 to 63 °C.

`N#Cc1c[nH]cc1-c1cccc2c1OC(F)(F)O2` displayed a melting point of 199 °C.

`C=CCCCC` had a melting point of -140 °C.

Regarding `CC1(C)C(=O)NC(=O)N1CO`, the melting point fell in the range of 100 to 105 °C.

Regarding `CCCCCS`, the melting point was -76 to -75.7 °C.

For the compound `O=C(O)CCCc1ccc(N(CCCl)CCCl)cc1`, the melting point lay in the range of 64 to 65 °C.

`Brc1cc(Br)c(Br)s1` returned a melting point of 27 to 29 °C.

For `O=C(O)c1ccc([N+](=O)[O-])o1`, the melting point fell in the range of 184 to 187 °C.

In turn, `CCC(C)(C)O` displayed a melting point of -12 to -8 °C.

`COc1ccccc1O` had a melting point of 28 to 32 °C.

For `Cc1c(Cl)cccc1[N+](=O)[O-]`, the melting point lay within 36 to 37.8 °C.

Compound `CCCCCCCCCCCC[N+](C)(C)[O-]` displayed a melting point of 130 to 132 °C.

`CC(C)c1ccc(Cl)cc1` yielded a melting point of -12.3 to -12 °C.

`CCOC(C)=O` came in with a melting point of -84 to -83.6 °C.

In turn, `N#CC(C#N)=C(C#N)C#N` had a melting point of 198 to 199 °C.

`N#Cc1cc([N+](=O)[O-])c(Cl)c([N+](=O)[O-])c1`: the melting point was 141 °C.

Consider `c1ccoc1`, for which the melting point is -85.6 to -85 °C.

On to `CC(=O)Nc1ccccc1C(=O)O`, for which the melting point is 184 to 186 °C.

As for `CN(C)CCC=C1c2ccccc2CCc2ccccc21`, the melting point stood at 196 °C.

`CCc1ccc(O)cc1` showed a melting point of 43 to 47 °C.

For `CC(Br)C(Br)C(=O)O` (centres undefined), the melting point was in the range of 85 to 87 °C.

Turning to `CC1OC(C)OC(C)O1` (centres undefined), the melting point was in the range of 12 to 12.6 °C.

For the compound `Cc1ccc(O)c(O)c1`, the melting point lay within 65 to 68 °C.

Take `CC(C)(C)C(C)(C)C`: the melting point came out at 101 °C.

Turning to `Nc1cccc2ncccc12`, the melting point was in the range of 108 to 110 °C.

Consider `O=C1CCOc2ccccc21`, for which the melting point fell in the range of 36.5 to 38 °C.

In the case of `Cc1ccc(Cc2ccccc2)cc1`, the melting point fell in the range of 4.58 to 5 °C.

`NC(=O)c1cccs1` displayed a melting point of 181 to 182 °C.

`O=C(O)c1cc(Cl)c(O)c(Cl)c1` came in with a melting point of 265 to 268 °C.

For the compound `O=C1C=CC(=O)N1c1ccccc1`, the melting point is 89 to 90.5 °C.

Compound `O=[N+]([O-])c1ccc(Cl)cc1` registered a melting point of 83.5 to 84 °C.

Compound `O=C(Cl)c1ccccc1F` showed a melting point of 4 to 5 °C.

Take `CCCC(=O)CC`: the melting point was -55.5 to -55 °C.

`Cc1cc(Cl)c(C)cc1Cl` came in with a melting point of 68 to 71 °C.

Take `COC(=O)c1cccc(O)c1`: the melting point lay within 71 to 74 °C.

`CC1CC(C)C(C)C1` (centres undefined): the melting point is -133 to -131 °C.

With `Clc1ccccc1`, the melting point is -46 to -45 °C.

On to `O=C1OC(=O)c2c(Cl)c(Cl)c(Cl)c(Cl)c21`, for which the melting point is 254 to 256 °C.

Compound `C=CCCCCCCCCCO` yielded a melting point of -3 to -2 °C.

Regarding `Brc1cccc2ccccc12`, the melting point is -1.8 to -1 °C.

On to `CCCN(CC1CC1)c1c([N+](=O)[O-])cc(C(F)(F)F)cc1[N+](=O)[O-]`, for which the melting point lay in the range of 32 to 32.5 °C.

In turn, `OC/C=C/c1ccccc1` displayed a melting point of 30 to 34 °C.

As for `COP(=S)(OC)Oc1ccc([N+](=O)[O-])cc1`, the melting point was 35.5 to 36 °C.

In the case of `O=C1CCC(=O)N1Cl`, the melting point was in the range of 148 to 150 °C.

In turn, `CCC(CC)C(C)C` registered a melting point of -115 °C.

Compound `Cl[SiH](Cl)Cl` showed a melting point of -127 to -126 °C.

`Cc1ccc(C)c(Br)c1` returned a melting point of 9 to 10 °C.

Turning to `Cc1cc(N)c2ccccc2n1`, the melting point lay in the range of 164 to 169 °C.

For `N#Cc1ccccc1[N+](=O)[O-]`, the melting point lay within 108 to 109 °C.

The compound `COC(=O)NN` yielded a melting point of 72 to 73 °C.

For `CCc1ccccc1Cl`, the melting point was -83 to -82.7 °C.

`CCCCCCCCCCCCCCCCCC` returned a melting point of 28 to 28.2 °C.

Take `OCc1cccc(CO)c1`: the melting point fell in the range of 57 to 58 °C.

Compound `c1cc2c3c(c1)CCCN3CCC2` gave a melting point of 35 to 40 °C.

`CCc1ccc(C)cc1C` displayed a melting point of -63 to -62.9 °C.

`ClC/C=C/CCl` came in with a melting point of 2 to 3.5 °C.

`NC(=O)CCl`: the melting point was 118 to 121 °C.

As to `O=[N+]([O-])c1ccccc1F`, the melting point was -8 to -6 °C.

In turn, `O=C(O)c1c(F)cc(F)cc1F` came in with a melting point of 141 to 143 °C.

In the case of `N#Cc1ccccc1-c1ccccc1`, the melting point lay within 38 to 41 °C.

The compound `Cc1ccc(N)cc1` gave a melting point of 43 to 44 °C.

Consider `C=CCC(C)CC` (centres undefined), for which the melting point is -142 to -141 °C.

`O=C(O)c1ccc(O)cc1O` came in with a melting point of 225 to 226 °C.

With `ClC1C(Cl)C(Cl)C(Cl)C(Cl)C1Cl` (centres undefined), the melting point lay in the range of 159 to 160 °C.

With `COC(=O)c1ccccc1`, the melting point is -15 to -12 °C.

`COC(F)(F)C(Cl)Cl` returned a melting point of -36 to -35 °C.

In turn, `CCCCCCCCCCO` had a melting point of 6 to 7 °C.

As to `NC(=O)c1ccccc1Br`, the melting point lay within 160 to 161 °C.

Compound `c1ccc2c(c1)Nc1ccccc1S2` had a melting point of 184 to 188 °C.

The compound `O=C(Cl)c1cc(C(=O)Cl)cc(C(=O)Cl)c1` showed a melting point of 36 to 36.3 °C.

Take `CC(C)C(C)C(C)C`: the melting point is -110 to -109 °C.

For `CC(CCC(=O)O)(c1ccc(O)cc1)c1ccc(O)cc1`, the melting point is 172 to 173 °C.

`O=Cc1ccc2c(c1)OCO2` showed a melting point of 36 to 37 °C.

As to `Nc1c(Cl)cc(Cl)cc1Br`, the melting point lay in the range of 80 to 83.5 °C.

Regarding `COC(=O)c1cc2ccccc2cc1O`, the melting point was in the range of 73 to 75.5 °C.

Turning to `CC(=O)c1ccco1`, the melting point was in the range of 29 to 33 °C.

As for `COC(=O)c1ccccc1C(=O)OC`, the melting point lay in the range of 2 to 5.5 °C.

As to `Nc1ccccc1-c1ccccc1`, the melting point fell in the range of 49 to 51.5 °C.

The compound `BrCCCOc1ccccc1` came in with a melting point of 10 to 10.7 °C.

As to `CCCCCCCCCCCCCl`, the melting point is -9.3 to -9 °C.

`OCCN1CCCCC1` yielded a melting point of 16 to 17.9 °C.

On to `O=Cc1ccnc2ccccc12`, for which the melting point fell in the range of 50 to 51 °C.

Regarding `CCOC(=O)c1cccnc1`, the melting point is 8.5 to 9 °C.

Regarding `COc1cc(Cl)cc(Cl)c1`, the melting point was 40 to 41 °C.

`Cc1ccc(Cl)cc1` yielded a melting point of 7 to 8 °C.

In turn, `Cc1ccc(C)c(N)c1` had a melting point of 12 to 15.5 °C.

As for `COc1ccc(C(C)=O)cc1OC`, the melting point was 49 to 51 °C.

Compound `CCCC#CCCC` yielded a melting point of -103 to -101 °C.

As for `Cc1cccc(C)c1O`, the melting point is 45.7 to 49 °C.

On to `O=S(=O)(Cl)c1ccc(I)cc1`, for which the melting point lay within 82 to 85 °C.

In turn, `Cc1c(Br)cc(Br)c(O)c1Br` displayed a melting point of 82 to 84 °C.

Regarding `N#CCc1ccccc1C(F)(F)F`, the melting point lay within 30 to 33 °C.

For `NC(=O)c1ccc(F)cc1`, the melting point came out at 156 °C.

The compound `Clc1cccc(Cl)c1Br` returned a melting point of 61 to 66 °C.

For `O=C(O)CC[N+](=O)[O-]`, the melting point lay in the range of 62 to 64 °C.

The compound `O=[N+]([O-])c1ccc(CCl)cc1` returned a melting point of 71 to 73 °C.

In the case of `CN1CCN(CCCN2c3ccccc3Sc3ccccc32)CC1`, the melting point fell in the range of 52 to 53 °C.

`COc1cc(Cl)ccc1N` showed a melting point of 51 to 52 °C.

On to `CC(=O)n1ccnc1`, for which the melting point fell in the range of 101 to 102 °C.

Compound `N#Cc1c2ccccc2cc2ccccc12` came in with a melting point of 175 to 177 °C.

The compound `CC(C)[N+](=O)[O-]` came in with a melting point of -93 to -91.3 °C.

As for `CC(=O)c1ccc(OCC(=O)O)cc1`, the melting point is 173 to 176 °C.

The compound `N#Cc1ccccc1Cl` registered a melting point of 45 to 46.3 °C.

For `Fc1cc(F)cc(F)c1`, the melting point was -6 to -5.5 °C.

On to `O=[N+]([O-])c1cc(C(F)(F)F)cc([N+](=O)[O-])c1Cl`, for which the melting point lay in the range of 56 to 57 °C.

In turn, `Clc1ccc(Cl)nn1` had a melting point of 67.5 to 68 °C.

`O=S(=O)(Cc1ccccc1)Cc1ccccc1` yielded a melting point of 151 to 152 °C.

As to `c1ccc(P(c2ccccc2)c2ccccc2)cc1`, the melting point fell in the range of 80 to 80.5 °C.

Regarding `Nc1ccccc1C(=O)O`, the melting point was in the range of 144 to 147 °C.

As to `CCCCCCCCCCCCCCCCCCCCCC(=O)O`, the melting point was 76 to 81 °C.

With `O=Cc1cccc(Cl)c1`, the melting point was 17 to 18 °C.

`Cc1cccc(Cl)c1Cl` came in with a melting point of 4 to 6 °C.

`C=Cc1ccccc1Br` yielded a melting point of -53 to -52.5 °C.

Take `CC(C)(C)c1cccc(C(C)(C)C)c1O`: the melting point lay within 36.5 to 39 °C.

`O=C(O)Cc1cccc([N+](=O)[O-])c1`: the melting point lay in the range of 118 to 119 °C.

`O=P(Oc1ccccc1)(Oc1ccccc1)Oc1ccccc1` had a melting point of 50 to 50.5 °C.

With `Cc1cccc(C(N)=O)c1`, the melting point is 95 to 96 °C.

The compound `NC(=S)c1c(Cl)cccc1Cl` displayed a melting point of 151 to 152 °C.

`CC(=O)C(C)=O` registered a melting point of -3 to -1.2 °C.

`COc1cc(C=O)ccc1O` registered a melting point of 81.5 to 82 °C.

The compound `CC(C)CC(=O)O` registered a melting point of -33 to -29.3 °C.

Take `CCOC(=O)CCC(=O)OCC`: the melting point was -21 to -20 °C.

`CC12CCC(C(=O)C1=O)C2(C)C` (centres undefined) displayed a melting point of 199 to 200 °C.

For the compound `Nc1cccc(O)c1`, the melting point was in the range of 123 to 125 °C.

Regarding `CCc1ccc(C)c(C)c1`, the melting point is -67 to -66.9 °C.

The compound `CC#N` came in with a melting point of -48 to -43.8 °C.

`O=C1CC[C@@H](C(=O)O)N1` gave a melting point of 160 to 162 °C.

The compound `CC(C)CC1CCCC1` displayed a melting point of -115 °C.

As to `Nc1ccc(/C=C/c2ccc([N+](=O)[O-])cc2)c([N+](=O)[O-])c1`, the melting point fell in the range of 198 to 202 °C.

`CCCCCCCC#N` displayed a melting point of -46 to -45 °C.

`Nc1cccc2cccc(N)c12` showed a melting point of 63 to 66.5 °C.

Turning to `c1cnccn1`, the melting point is 53 to 55 °C.

Regarding `Oc1ccccn1`, the melting point is 107 to 108 °C.

`CCCCOc1ccc(O)cc1` showed a melting point of 65 to 65.5 °C.

In the case of `OCc1c[nH]c2ccccc12`, the melting point lay within 97.5 to 98 °C.

The compound `CC12CCC3c4ccc(O)cc4CCC3C1CCC2O` (centres undefined) came in with a melting point of 173 to 178 °C.

With `COc1ccc(N)c([N+](=O)[O-])c1`, the melting point is 124 to 127 °C.

As for `c1ccc(OP(Oc2ccccc2)Oc2ccccc2)cc1`, the melting point was 23 to 25 °C.

`O=C(Oc1ccccc1)c1ccccc1` yielded a melting point of 67 to 71 °C.

The record behind these values is a melting point compilation (Tetko et al.).
